# Results taken from ChEMBL document CHEMBL1201862, “PubChem BioAssay data set” (2004).
#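 Following 48 hours of exposure in 96-well plates, responses at five concentrations were used to interpolate endpoints linearly. GI50 = concentration required for 50% inhibition of growth.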 Calls of active or inactive are those of the source. Rule as the data show it: active = GI50 up to about 1.1 µM and inactive = higher.
# Columns and labels:
# Experiment in all cases: inhibition of tumour cell growth, NCI panel, 48 h
# 786-0 = tested on: 786-0
# A549 = tested on: A549
# ACHN = tested on: ACHN
# BT-549 = tested on: BT-549
# CAKI-1 = tested on: CAKI-1
# CCRF-CEM = tested on: CCRF-CEM
# COLO 205 = tested on: COLO 205
# DU-145 = tested on: DU-145
# HCC 2998 = tested on: HCC 2998
# HCT-116 = tested on: HCT-116
# HCT-15 = tested on: HCT-15
# HL-60 = tested on: HL-60
# HOP-62 = tested on: HOP-62
# HOP-92 = tested on: HOP-92
# HT-29 = tested on: HT-29
# Hs-578T = tested on: Hs-578T
# IGROV-1 = tested on: IGROV-1
# K562 = tested on: K562
# KM12 = tested on: KM12
# LOX IMVI = tested on: LOX IMVI
# M14 = tested on: M14
# MCF7 = tested on: MCF7
# MDA-MB-231 = tested on: MDA-MB-231
# MDA-MB-435 = tested on: MDA-MB-435
# MDA-N = tested on: MDA-N
# MOLT-4 = tested on: MOLT-4
# Malme-3M = tested on: Malme-3M
# NCI-H23 = tested on: NCI-H23
# NCI-H522 = tested on: NCI-H522
# NCI/ADR-RES = tested on: NCI/ADR-RES
# OVCAR-3 = tested on: OVCAR-3
# OVCAR-4 = tested on: OVCAR-4
# OVCAR-5 = tested on: OVCAR-5
# OVCAR-8 = tested on: OVCAR-8
# PC-3 = tested on: PC-3
# RPMI-8226 = tested on: RPMI-8226
# SF-268 = tested on: SF-268
# SF-295 = tested on: SF-295
# SF-539 = tested on: SF-539
# SK-MEL-28 = tested on: SK-MEL-28
# SK-MEL-5 = tested on: SK-MEL-5
# SK-OV-3 = tested on: SK-OV-3
# SN12C = tested on: SN12C
# SNB-19 = tested on: SNB-19
# SNB-75 = tested on: SNB-75
# SR = tested on: SR
# SW-620 = tested on: SW-620
# T47D = tested on: T47D
# TK-10 = tested on: TK-10
# U-251 = tested on: U-251
# UACC-257 = tested on: UACC-257
# UACC-62 = tested on: UACC-62
# A498 = tested on: A498
# EKVX = tested on: EKVX
# NCI-H460 = tested on: NCI-H460
# SK-MEL-2 = tested on: SK-MEL-2
# UO-31 = tested on: UO-31
smiles,measurement,setting,value
COc1cc(/C=N\NC(=O)C[N+](C)(C)C)cc(OC)c1OC,GI50,786-0,> 10 µM (inactive)
same,GI50,A549,> 10 µM (inactive)
same,GI50,ACHN,> 10 µM (inactive)
same,GI50,BT-549,> 10 µM (inactive)
same,GI50,CAKI-1,> 10 µM (inactive)
same,GI50,CCRF-CEM,> 10 µM (inactive)
same,GI50,COLO 205,> 10 µM (inactive)
same,GI50,DU-145,> 10 µM (inactive)
same,GI50,HCC 2998,> 10 µM (inactive)
same,GI50,HCT-116,> 10 µM (inactive)
same,GI50,HCT-15,> 10 µM
same,GI50,HL-60,> 10 µM (inactive)
same,GI50,HOP-62,> 10 µM (inactive)
same,GI50,HOP-92,> 10 µM (inactive)
same,GI50,HT-29,> 10 µM (inactive)
same,GI50,Hs-578T,> 10 µM (inactive)
same,GI50,IGROV-1,> 10 µM (inactive)
same,GI50,K562,> 10 µM (inactive)
same,GI50,KM12,> 10 µM (inactive)
same,GI50,LOX IMVI,> 10 µM (inactive)
same,GI50,M14,> 10 µM (inactive)
same,GI50,MCF7,> 10 µM (inactive)
same,GI50,MDA-MB-231,> 10 µM (inactive)
same,GI50,MDA-MB-435,> 10 µM (inactive)
same,GI50,MDA-N,> 10 µM (inactive)
same,GI50,MOLT-4,> 10 µM (inactive)
same,GI50,Malme-3M,> 10 µM (inactive)
same,GI50,NCI-H23,> 10 µM (inactive)
same,GI50,NCI-H522,> 10 µM (inactive)
same,GI50,NCI/ADR-RES,> 10 µM (inactive)
same,GI50,OVCAR-3,> 10 µM (inactive)
same,GI50,OVCAR-4,> 10 µM (inactive)
same,GI50,OVCAR-5,> 10 µM (inactive)
same,GI50,OVCAR-8,> 10 µM (inactive)
same,GI50,PC-3,> 10 µM (inactive)
same,GI50,RPMI-8226,> 10 µM (inactive)
same,GI50,SF-268,> 10 µM (inactive)
same,GI50,SF-295,> 10 µM (inactive)
same,GI50,SF-539,> 10 µM (inactive)
same,GI50,SK-MEL-28,> 10 µM (inactive)
same,GI50,SK-MEL-5,> 10 µM (inactive)
same,GI50,SK-OV-3,> 10 µM (inactive)
same,GI50,SN12C,> 10 µM (inactive)
same,GI50,SNB-19,> 10 µM (inactive)
same,GI50,SNB-75,> 10 µM (inactive)
same,GI50,SR,> 10 µM (inactive)
same,GI50,SW-620,> 10 µM (inactive)
same,GI50,T47D,> 10 µM (inactive)
same,GI50,TK-10,> 10 µM (inactive)
same,GI50,U-251,> 10 µM (inactive)
same,GI50,UACC-257,> 10 µM (inactive)
same,GI50,UACC-62,> 10 µM (inactive)
O=C1CSC(c2cccc(Cl)c2)N1c1ccc(-n2c(-c3ccccc3)nc3ccccc3c2=O)cc1 (configuration not stated),GI50,786-0,> 100 µM (inactive)
same,GI50,A498,94.8 µM (inactive)
same,GI50,A549,> 100 µM (inactive)
same,GI50,ACHN,79.3 µM (inactive)
same,GI50,BT-549,9.98 µM (inactive)
same,GI50,CAKI-1,45.3 µM (inactive)
same,GI50,CCRF-CEM,40 µM (inactive)
same,GI50,COLO 205,> 100 µM (inactive)
same,GI50,DU-145,> 100 µM (inactive)
same,GI50,EKVX,> 100 µM (inactive)
same,GI50,HCC 2998,43.7 µM (inactive)
same,GI50,HCT-116,53 µM (inactive)
same,GI50,HCT-15,15.8 µM
same,GI50,HL-60,> 100 µM (inactive)
same,GI50,HOP-62,> 100 µM (inactive)
same,GI50,HOP-92,2.69 µM (inactive)
same,GI50,HT-29,97.7 µM (inactive)
same,GI50,Hs-578T,39.3 µM (inactive)
same,GI50,IGROV-1,59.2 µM (inactive)
same,GI50,K562,51.6 µM (inactive)
same,GI50,KM12,21.3 µM (inactive)
same,GI50,LOX IMVI,46.2 µM (inactive)
same,GI50,MCF7,30.3 µM (inactive)
same,GI50,MDA-MB-231,21.1 µM (inactive)
same,GI50,MDA-MB-435,45.8 µM (inactive)
same,GI50,MDA-N,> 100 µM (inactive)
same,GI50,MOLT-4,5.47 µM (inactive)
same,GI50,Malme-3M,> 100 µM (inactive)
same,GI50,NCI-H23,> 100 µM (inactive)
same,GI50,NCI-H460,39.1 µM (inactive)
same,GI50,NCI-H522,43.3 µM (inactive)
same,GI50,NCI/ADR-RES,25.5 µM (inactive)
same,GI50,OVCAR-3,> 100 µM (inactive)
same,GI50,OVCAR-4,18.7 µM (inactive)
same,GI50,OVCAR-5,> 100 µM (inactive)
same,GI50,OVCAR-8,79.8 µM (inactive)
same,GI50,PC-3,51.3 µM (inactive)
same,GI50,RPMI-8226,52.4 µM (inactive)
same,GI50,SF-268,8.07 µM (inactive)
same,GI50,SF-295,> 100 µM (inactive)
same,GI50,SF-539,67.1 µM (inactive)
same,GI50,SK-MEL-28,> 100 µM (inactive)
same,GI50,SK-MEL-2,> 100 µM (inactive)
same,GI50,SK-MEL-5,47 µM (inactive)
same,GI50,SK-OV-3,88.7 µM (inactive)
same,GI50,SN12C,> 100 µM (inactive)
same,GI50,SNB-19,> 100 µM (inactive)
same,GI50,SR,7.66 µM (inactive)
same,GI50,SW-620,> 100 µM (inactive)
same,GI50,T47D,10 µM (inactive)
same,GI50,TK-10,> 100 µM (inactive)
same,GI50,U-251,29 µM (inactive)
same,GI50,UACC-257,> 100 µM (inactive)
same,GI50,UACC-62,21.4 µM (inactive)
same,GI50,UO-31,3.22 µM (inactive)
